The text below walks through data of US4994472A, “1-(pyridinylamino)-2-pyrrolidinones as pain relievers” (Hoechst-Roussel Pharmaceuticals Incorporated, priority 1989, dated 1991).

Assay [1] concerns Scopolamine Induced Memory Deficit. Nature of the assay: Dark Avoidance Assay (reversal of scopolamine induced memory deficit). To be noted: mice, retest after 24 hours. It counts as in vivo. The procedure:
In this assay, mice are tested for their ability to remember an unpleasant stimulus for a period of 24 hours. A mouse is placed in a chamber that contains a dark compartment; a strong incandescent light drives it to the dark compartment, where an electric shock is administered through metal plates on the floor. The animal is removed from the testing apparatus and tested again, 24 hours later, for the ability to remember the electric shock. If scopolamine, an anticholinergic that is known to cause memory impairment, is administered before an animal's initial exposure to the test chambers, the animal re-enters the dark compartment shortly after being placed in the test chamber 24 hours later. The effect of scopolamine is blocked by an active test compound, resulting in a greater interval before re-entry into the dark compartment. The results for an active compound are expressed as the percent of a group of animals in which the effect of scopolamine is blocked, as manifested by an increased interval between being placed in the test chamber and re-entering the dark compartment. The activity in the assay of some of the compounds of the invention are given below in Table 2.

Assay [2] deals with phenyl-para-quinone induced writhing. The assay is described as follows: phenyl-para-quinone writhing assay in mice (analgesia). In kind it is in vivo. To be noted: 20 mg/kg s.c., expressed as % decrease in writhing. An excerpt: Exptl. […] Presented in Table I is the analgesic effect of one of the compounds of the invention expressed as the % decrease in writhing at a given dose.

`Nc1c2c(nc3ccccc13)CCCC2` [Tacrine, reference compound]: the “% of Animals With Scopolamine Induced Memory Deficit Reversal” value in assay [1] (.63 (mg/kg of body wt) s.c.) worked out at 13%.
Take `CCCN(c1ccncc1)N1CCCC1=O.O=C(O)C(=O)O` [1-(Propyl-4-pyridinylamino)-2-pyrrolidinone oxalate]: the “% of Animals With Scopolamine Induced Memory Deficit Reversal” value in assay [1] (.3 mg/kg s.c.) was found to be 33%.
As to `O=C1CCCN1Nc1ccncc1` [1-(4-pyridinylamino)-2-pyrrolidinone, 1-(4-Pyridinylamino)-2-pyrrolidinone], the “% Inhibition of Writhing” value in assay [2] is -56%.
